Structures are written as SMILES.

For 29 molecules, IC50 results are on record in patent US8921555B2, “Substituted-1,3,8-triazaspiro[4.5]decane-2,4-diones” (Merck Sharp & Dohme Corp., priority 2009, dated 2014).

One test deals with T1, HIF-PHD2 (Homo sapiens, UniProt Q9GZT9).
T1 construct: FLAG-tagged full length PHD2 expressed in and purified from baculovirus-infected Sf9 cells; FLAG; made in house; host or cells: baculovirus-infected Sf9 cells
T1 sequence (Q9GZT9 whole entry): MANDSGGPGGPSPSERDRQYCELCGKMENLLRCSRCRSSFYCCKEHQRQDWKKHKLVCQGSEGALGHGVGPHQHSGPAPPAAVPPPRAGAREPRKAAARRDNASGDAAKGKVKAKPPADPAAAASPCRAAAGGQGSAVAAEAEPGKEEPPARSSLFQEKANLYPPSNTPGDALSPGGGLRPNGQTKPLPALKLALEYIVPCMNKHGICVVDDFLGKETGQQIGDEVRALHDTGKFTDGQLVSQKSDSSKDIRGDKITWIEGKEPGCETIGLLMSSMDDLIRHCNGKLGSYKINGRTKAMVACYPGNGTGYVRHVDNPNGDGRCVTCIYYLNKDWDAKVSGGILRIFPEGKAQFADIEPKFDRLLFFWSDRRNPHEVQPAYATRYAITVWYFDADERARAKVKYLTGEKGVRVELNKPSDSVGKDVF
Nature of the test: Assay for HIF-PHD2 Catalytic Activity (PHD2 Binding Activity).
Settings: not given
It is filed as biochemical.
Usually IC50 stands for the concentration needed to halve the response being measured. For `CCOC(=O)C1CN(Cc2ncccc2C)CCC12C(=O)N(c1ccc(-c3ccccc3)cc1)C(=O)N2c1cc(O)ncn1` (single isomer, unassigned) [Compound 3-10, Ethyl 3-biphenyl-4-yl-1-(6-hydroxypyrimidin-4-yl)-8-[(3-methylpyridin-2-yl)methyl]-2,4-dioxo-1,3,8-triazaspiro[4.5]decane-6-carboxylate], the 50% inhibitory concentration (IC50) lay in the range of 0.0005 to 0.02 µM.

Molecule `Cc1cccnc1CN1CCC2(CC1)C(=O)N(c1ccccc1)C(=O)N2c1nccc(O)n1` [Compound 1-3, 1-(4-hydroxypyrimidin-2-yl)-8-[(3-methylpyridin-2-yl)methyl]-3-phenyl-1,3,8-triazaspiro[4.5]decane-2,4-dione] showed an IC50 above 0.05 µM.

In turn, `Cc1cccnc1CN1CCC2(CC1)C(=O)N(c1ccc(-c3ccccc3)cc1)C(=O)N2c1ccccc1` [Compound 1-4, 3-biphenyl-4-yl-8-[(3-methylpyridin-2-yl)methyl]-1-phenyl-1,3,8-triazaspiro[4.5]decane-2,4-dione] had a half-inhibitory concentration (IC50) of 0.0005 to 0.02 µM.

In the case of `Cc1cccnc1CN1CCC2(CC1)C(=O)N(c1ccc(-c3ccccc3)cc1)C(=O)N2c1cc(C(=O)O)ccn1` [Compound 1-5, 2-{3-biphenyl-4-yl-8-[(3-methylpyridin-2-yl)methyl]-2,4-dioxo-1,3,8-triazaspiro[4.5]dec-1-yl}isonicotinic acid], the IC50 lay within 0.0005 to 0.02 µM.

`Cc1cccnc1CN1CCC2(CC1)C(=O)N(c1ccc(-c3ccccc3)cc1)C(=O)N2c1cccc(F)n1` [Compound 1-6, 3-biphenyl-4-yl-1-(6-fluoropyridin-2-yl)-8-[(3-methylpyridin-2-yl)methyl]-1,3,8-triazaspiro[4.5]decane-2,4-dione]: the IC50 was 0.0005 to 0.02 µM.

Turning to `Cc1cccnc1CN1CCC2(CC1)C(=O)N(c1ccc(-c3ccccc3)cc1)C(=O)N2c1ccc(C#N)cn1` [Compound 1-7, 6-{3-biphenyl-4-yl-8-[(3-methylpyridin-2-yl)methyl]-2,4-dioxo-1,3,8-triazaspiro[4.5]dec-1-yl}nicotinonitrile], the IC50 was 0.0005 to 0.02 µM.

As for `Cc1cccnc1CN1CCC2(CC1)C(=O)N(c1ccc(-c3ccccc3)cc1)C(=O)N2c1ccncc1` [Compound 1-8, 3-biphenyl-4-yl-8-[(3-methylpyridin-2-yl)methyl]-1-pyridin-4-yl-1,3,8-triazaspiro[4.5]decane-2,4-dione], the IC50 is 0.02 to 0.05 µM.

Take `Cc1cccnc1CN1CCC2(CC1)C(=O)N(c1ccc(-c3ccccc3)cc1)C(=O)N2c1ncc(O)cn1` [Compound 1-10, 3-biphenyl-4-yl-1-(5-hydroxypyrimidin-2-yl)-8-[(3-methylpyridin-2-yl)methyl]-1,3,8-triazaspiro[4.5]decane-2,4-dione]: the IC50 is 0.0005 to 0.02 µM.

For `COc1cccc(N2C(=O)N(c3ccc(-c4ccccc4)cc3)C(=O)C23CCN(Cc2ncccc2C)CC3)n1` [Compound 1-11, 3-biphenyl-4-yl-1-(6-methoxypyridin-2-yl)-8-[(3-methylpyridin-2-yl)methyl]-1,3,8-triazaspiro[4.5]decane-2,4-dione], the IC50 fell in the range of 0.0005 to 0.02 µM.

The molecule `COC(=O)c1cccc(N2C(=O)N(c3ccc(-c4ccccc4)cc3)C(=O)C23CCN(Cc2ncccc2C)CC3)n1` [Compound 1-13, methyl 6-{3-biphenyl-4-yl-8-[(3-methylpyridin-2-yl)methyl]-2,4-dioxo-1,3,8-triazaspiro[4.5]dec-1-yl}pyridine-2-carboxylate] displayed an IC50 of 0.0005 to 0.02 µM.

On to `Cc1cccnc1CN1CCC2(CC1)C(=O)N(c1ccc(-c3ccccc3)cc1)C(=O)N2c1cccc(C(=O)O)n1` [Compound 1-14, 6-{3-biphenyl-4-yl-8-[(3-methylpyridin-2-yl)methyl]-2,4-dioxo-1,3,8-triazaspiro[4.5]dec-1-yl}pyridine-2-carboxylic acid], for which the IC50 is 0.0005 to 0.02 µM.

The molecule `COc1ccnc(N2C(=O)N(c3ccc(-c4nnn[nH]4)cc3)C(=O)C23CCN(Cc2ncccc2C)CC3)n1` [Compound 1-15, 1-(4-methoxypyrimidin-2-yl)-8-[(3-methylpyridin-2-yl)methyl]-3-[4-(1H-tetrazol-5-yl)phenyl]-1,3,8-triazaspiro[4.5]decane-2,4-dione] returned an IC50 of 0.02 to 0.05 µM.

Molecule `Cc1cccnc1CN1CCC2(CC1)C(=O)N(c1ccc(-c3nnn[nH]3)cc1)C(=O)N2c1nccc(O)n1` [Compound 1-16, 1-(4-hydroxypyrimidin-2-yl)-8-[(3-methylpyridin-2-yl)methyl]-3-[4-(1H-tetrazol-5-yl)phenyl]-1,3,8-triazaspiro[4.5]decane-2,4-dione] showed an IC50 above 0.05 µM.

For `Cc1cccnc1CN1CCC2(CC1)C(=O)N(c1ccc(C(=O)O)cc1)C(=O)N2c1nccc(O)n1` [Compound 1-17, 4-{1-(4-hydroxypyrimidin-2-yl)-8-[(3-methylpyridin-2-yl)methyl]-2,4-dioxo-1,3,8-triazaspiro[4.5]dec-3-yl}benzoic acid], the IC50 was above 0.05 µM.

The molecule `Cc1cccnc1CN1CCC2(CC1)C(=O)N(c1ccc(-c3ccccc3)cc1)C(=O)N2c1cccnc1` [Compound 1-18, 3-biphenyl-4-yl-8-[(3-methylpyridin-2-yl)methyl]-1-pyridin-3-yl-1,3,8-triazaspiro[4.5]decane-2,4-dione] registered a 50% inhibitory concentration (IC50) of 0.0005 to 0.02 µM.

Regarding `COc1ccnc(N2C(=O)N(c3ccc(-c4ccccc4)cc3)C(=O)C23CCN(Cc2nccn2CC(=O)OC(C)(C)C)CC3)n1` [Compound 1-19, tert-butyl (2-{[3-biphenyl-4-yl-1-(4-methoxypyrimidin-2-yl)-2,4-dioxo-1,3,8-triazaspiro[4,5]dec-8-yl]methyl}-1H-imidazol-1-yl)acetate], the half-maximal inhibitory concentration (IC50) is above 0.05 µM.

As to `COc1ccnc(N2C(=O)N(c3ccc(-c4ccccc4)cc3)C(=O)C23CCN(Cc2nccn2CC(=O)O)CC3)n1` [Compound 1-21, (2-{[3-biphenyl-4-yl-1-(4-methoxypyrimidin-2-yl)-2,4-dioxo-1,3,8-triazaspiro[4.5]dec-8-yl]methyl}-1H-imidazol-1-yl)acetic acid], the IC50 fell in the range of 0.0005 to 0.02 µM.

In turn, `COc1ccnc(N2C(=O)N(c3ccc(-c4ccccc4)cc3)C(=O)C23CCN(Cc2nccn2CCC(=O)O)CC3)n1` [Compound 1-22, 3-(2-{[3-biphenyl-4-yl-1-(4-methoxypyrimidin-2-yl)-2,4-dioxo-1,3,8-triazaspiro[4.5]dec-8-yl]methyl}-1H-imidazol-1-yl)propanoic acid] yielded an IC50 of 0.0005 to 0.02 µM.

For `O=C(O)Cn1ccnc1CN1CCC2(CC1)C(=O)N(c1ccc(-c3ccccc3)cc1)C(=O)N2c1nccc(O)n1` [Compound 1-23, (2-{[3-biphenyl-4-yl-1-(4-hydroxypyrimidin-2-yl)-2,4-dioxo-1,3,8-triazaspiro[4.5]dec-8-yl]methyl}-1H-imidazol-1-yl)acetic acid], the concentration for half-maximal inhibition (IC50) was 0.0005 to 0.02 µM.

In turn, `O=C(O)CCn1ccnc1CN1CCC2(CC1)C(=O)N(c1ccc(-c3ccccc3)cc1)C(=O)N2c1nccc(O)n1` [Compound 1-24, 3-(2-{[3-biphenyl-4-yl-1-(4-hydroxypyrimidin-2-yl)-2,4-dioxo-1,3,8-triazaspiro[4.5]dec-8-yl]methyl}-1H-imidazol-1-yl)propanoic acid] yielded an IC50 of 0.0005 to 0.02 µM.

In turn, `COc1ccnc(N2C(=O)N(c3ccc(C#N)cc3)C(=O)C23CCN(Cc2ncccc2C)CC3)n1` [Compound 1-25, 4-{1-(4-methoxypyrimidin-2-yl)-8-[(3-methylpyridin-2-yl)methyl]-2,4-dioxo-1,3,8-triazaspiro[4.5]dec-3-yl}benzonitrile] displayed a half-maximal inhibitory concentration (IC50) above 0.05 µM.

`CCOC(=O)c1ccc(N2C(=O)N(c3nccc(OC)n3)C3(CCN(Cc4ncccc4C)CC3)C2=O)cc1` [Compound 1-26, ethyl 4-{1-(4-methoxypyrimidin-2-yl)-8-[(3-methylpyridin-2-yl)methyl]-2,4-dioxo-1,3,8-triazaspiro[4.5]dec-3-yl}benzoate] had an IC50 of 0.0005 to 0.02 µM.

`COc1ccnc(N2C(=O)N(c3ccc(-c4ccccc4)cc3)C(=O)C23CCN(Cc2ncccc2Br)CC3)n1` [Compound 1-28, 3-biphenyl-4-yl-8-[(3-bromopyridin-2-yl)methyl]-1-(4-methoxypyrimidin-2-yl)-1,3,8-triazaspiro[4.5]decane-2,4-dione] returned an IC50 of 0.02 to 0.05 µM.

On to `COc1ccnc(N2C(=O)N(c3ccc(-c4ccccc4)cc3)C(=O)C23CCN(Cc2ncccc2C)CC3)n1` [Compound 1-29, 3-biphenyl-4-yl-1-(4-methoxypyrimidin-2-yl)-8-[(3-methylpyridin-2-yl)methyl]-1,3,8-triazaspiro[4.5]decane-2,4-dione], for which the half-inhibitory concentration (IC50) lay within 0.0005 to 0.02 µM.

For the molecule `COc1ccnc(N2C(=O)N(c3ccccc3)C(=O)C23CCN(Cc2ncccc2C)CC3)n1` [Compound 1-30, 1-(4-methoxypyrimidin-2-yl)-8-[(3-methylpyridin-2-yl)methyl]-3-phenyl-1,3,8-triazaspiro[4.5]decane-2,4-dione], the 50% inhibitory concentration (IC50) was above 0.05 µM.

With `O=C1N(c2ccc(-c3ccccc3)cc2)C(=O)C2(CCN(Cc3ncccc3Br)CC2)N1c1nccc(O)n1` [Compound 1-31, 3-biphenyl-4-yl-8-[(3-bromopyridin-2-yl)methyl]-1-(4-hydroxypyrimidin-2-yl)-1,3,8-triazaspiro[4.5]decane-2,4-dione], the IC50 is above 0.05 µM.

On to `COc1ccnc(N2C(=O)N(c3ccc(-c4ccccc4)cc3)C(=O)C23CCN(Cc2ncccc2C#N)CC3)n1` [Compound 1-40, 2-{[3-biphenyl-4-yl-1-(4-methoxypyrimidin-2-yl)-2,4-dioxo-1,3,8-triazaspiro[4.5]dec-8-yl]methyl}nicotinonitrile], for which the IC50 was above 0.05 µM.

Consider `COc1ccnc(N2C(=O)N(c3ccc(-c4ccccc4)cc3)C(=O)C23CCN(Cc2ncccc2-c2nnn[nH]2)CC3)n1` [Compound 1-41, 3-biphenyl-4-yl-1-(4-methoxypyrimidin-2-yl)-8-{[3-(1H-tetrazol-5-yl)pyridin-2-yl]methyl}-1,3,8-triazaspiro[4.5]decane-2,4-dione], for which the IC50 was above 0.05 µM.

The test is the same for the next values; noted with them: read-out: PHD2 Binding Activity IC50.
Consider `Cc1cccnc1CN1CCC2(CC1)C(=O)N(c1ccc(-c3ccccc3)cc1)C(=O)N2c1cccs1` [Compound 1-27, 3-biphenyl-4-yl-8-[(3-methylpyridin-2-yl)methyl]-1-(2-thienyl)-1,3,8-triazaspiro[4.5]decane-2,4-dione], for which the half-maximal inhibitory concentration (IC50) lay in the range of 0.0005 to 0.02 µM.
